20 molecules from patent publication US9296741B2, “Bromodomain inhibitors” (priority 2012, dated 2016) can be followed below.

Series [1] can be described thus: Rat liver microsome stability assay. The format is in vitro ADME. The following applies: rat liver microsomes (male Sprague-Dawley), 0.5 μM test compound, 0.25 mg/mL microsomal protein, pH 7.4, 37° C.; read-out: Stability in rat liver microsomes (t1/2 in minutes). Background: Liver microsomes are vesicles of endoplasmic reticulum, rich in cytochrome P450 enzymes.
A short description of series [2]: Human liver microsome stability assay. The format is in vitro ADME. The following applies: both sexes, human, microsomes, pH 7.4.
Series [3] has as its system breast cancer cell line MX-1. Nature of the series: MX-1 cell line proliferation assay. The format is cell-based, human. The following applies: Homo sapiens, MX1, 72 h; MX-1 cells, 3-day proliferation, Cell Titer Glo; read-out: Cellular proliferation: EC50. Background: Cellular ATP, detected with luciferase, serves as a proxy for viable cell number.
The nature of series [4]: Mouse liver microsome stability assay. The following applies: male, CD1, mouse, microsomes, pH 7.4. Type of series: in vitro ADME.
The target of series [5] is human BRD4 first bromodomain (BDI_K57-E168) (Homo sapiens (Human), UniProt O60885). Nature of the series: TR-FRET bromodomain binding assay, BRD4 first bromodomain. (In general: TR-FRET usually uses a lanthanide donor and a delayed reading to cut background.)
The target in series [6] is human BRD4 second bromodomain (BDII_E352-M457) (Homo sapiens (Human), UniProt O60885). Nature of the series: TR-FRET bromodomain binding assay, BRD4 second bromodomain.

In the case of `Cn1cc(-c2cc(S(C)(=O)=O)ccc2Oc2cccc3cnccc23)c2cc[nH]c2c1=O` [Example 161, 4-[2-(isoquinolin-5-yloxy)-5-(methylsulfonyl)phenyl]-6-methyl-1,6-dihydro-7H-pyrrolo[2,3-c]pyridin-7-one], the half-life at 0.5 μM came out at 10 min in series [1], 5 min in series [2] and 4 min in series [4]. Moreover, the EC50 in series [3] worked out at 104 nM.

As for `Cn1cc(-c2cc(CS(C)(=O)=O)ccc2Nc2ccc(F)cc2)c2cc[nH]c2c1=O` [Example 335, 4-{2-[(4-fluorophenyl)amino]-5-[(methylsulfonyl)methyl]phenyl}-6-methyl-1,6-dihydro-7H-pyrrolo[2,3-c]pyridin-7-one], the half-life at 0.5 μM in series [1] worked out at 34 min; in series [2], 35 min; in series [4], 54 min. Besides, the EC50 in series [3] was 22.4 nM.

With `Cn1cc(-c2cc(C(=O)Nc3nccs3)ccc2Oc2ccccc2)c2cc[nH]c2c1=O` [Example 17, 3-(6-methyl-7-oxo-6,7-dihydro-1H-pyrrolo[2,3-c]pyridin-4-yl)-4-phenoxy-N-(1,3-thiazol-2-yl)benzamide], the values for the half-life at 0.5 μM in series [1], in series [2] and in series [4] were 18 min, 31 min and 16 min, respectively. In addition, the EC50 in series [3] stood at 283 nM.

Consider `Cn1cc(-c2cc(NS(=O)(=O)CC(F)(F)F)ccc2OC2CCOCC2)c2cc[nH]c2c1=O` [Example 100, 2,2,2-trifluoro-N-[3-(6-methyl-7-oxo-6,7-dihydro-1H-pyrrolo[2,3-c]pyridin-4-yl)-4-(tetrahydro-2H-pyran-4-yloxy)phenyl]ethanesulfonamide], for which the half-life at 0.5 μM in series [1] came out at 71 min; in series [2] it was 77 min; in series [4], 60 min. Further, in series [3], the EC50 is 107 nM.

On to `CCS(=O)(=O)Nc1ccc(Oc2ccc(F)cc2F)c(-c2cn(C)c(=O)c3[nH]ncc23)c1` [Example 320, N-[4-(2,4-difluorophenoxy)-3-(6-methyl-7-oxo-6,7-dihydro-1H-pyrazolo[3,4-c]pyridin-4-yl)phenyl]ethanesulfonamide], for which the half-life at 0.5 μM is 57 min in series [1], more than 120 min in series [2] and 116 min in series [4]. For the same molecule, the EC50 in series [3] was determined as 18.7 nM.

For the molecule `Cn1cc(-c2cc(S(C)(=O)=O)ccc2Oc2ccc(S(C)(=O)=O)cc2)c2cc[nH]c2c1=O` [Example 270, 6-methyl-4-{5-(methylsulfonyl)-2-[4-(methylsulfonyl)phenoxy]phenyl}-1,6-dihydro-7H-pyrrolo[2,3-c]pyridin-7-one], the half-life at 0.5 μM in series [1], in series [2] and in series [4] was more than 120 min each time. In addition, the EC50 in series [3] was found to be 421 nM.

Take `Cn1cc(-c2cc(C(=O)N3CCCC3)ccc2Oc2ccc(F)cc2F)c2cc[nH]c2c1=O` [Example 55, 4-[2-(2,4-difluorophenoxy)-5-(pyrrolidin-1-ylcarbonyl)phenyl]-6-methyl-1,6-dihydro-7H-pyrrolo[2,3-c]pyridin-7-one]: the half-life at 0.5 μM in series [1] was determined as 9 min; in series [2] it was 25 min; in series [4] it was 13 min. Moreover, in series [3], the EC50 was 200 nM.

On to `CCNC(=O)Cc1ccc(OCc2ccccc2)c(-c2cn(C)c(=O)c3[nH]ccc23)c1` [Example 46, 2-[4-(benzyloxy)-3-(6-methyl-7-oxo-6,7-dihydro-1H-pyrrolo[2,3-c]pyridin-4-yl)phenyl]-N-ethylacetamide], for which the half-life at 0.5 μM in series [1] turned out to be 4 min; in series [2], 10 min; in series [4] it was 13 min. Moreover, the EC50 in series [3] is 588 nM.

With `COC(=O)Cc1ccc(OCc2ccccc2)c(-c2cn(C)c(=O)c3[nH]ccc23)c1` [Example 45, methyl [4-(benzyloxy)-3-(6-methyl-7-oxo-6,7-dihydro-1H-pyrrolo[2,3-c]pyridin-4-yl)phenyl]acetate], the figures for the half-life at 0.5 μM in series [1] and in series [4] were 2 min and 3 min, respectively. Moreover, in series [3], the EC50 was found to be 233 nM.

As to `C=C(C)c1cc2c(-c3cc(S(C)(=O)=O)ccc3Oc3ccc(F)cc3F)cn(C)c(=O)c2[nH]1` [Example 291, 4-[2-(2,4-difluorophenoxy)-5-(methylsulfonyl)phenyl]-6-methyl-2-(prop-1-en-2-yl)-1,6-dihydro-7H-pyrrolo[2,3-c]pyridin-7-one], the half-life at 0.5 μM in series [1] came out at 8 min; in series [2], 16 min; in series [4], 16 min. Moreover, the results for the Ki in series [5] and in series [6] were 32.9 nM and 23.7 nM, respectively.

`Cn1cc(-c2cc(C(=O)NCc3ccc(F)c(F)c3)ccc2Oc2ccc(F)cc2F)c2cc[nH]c2c1=O` [Example 125, N-(3,4-difluorobenzyl)-4-(2,4-difluorophenoxy)-3-(6-methyl-7-oxo-6,7-dihydro-1H-pyrrolo[2,3-c]pyridin-4-yl)benzamide]: the figures for the half-life at 0.5 μM in series [1], in series [2] and in series [4] were 23 min, 45 min and 12 min, respectively. In addition, the Ki – broadly, a measure of affinity in units of concentration, obtained from inhibition or displacement – in series [5] was 215 nM; in series [6], 274 nM.

As for `Cn1cc(-c2cc(S(C)(=O)=O)ccc2Oc2cccc3nsnc23)c2cc[nH]c2c1=O` [Example 171, 4-[2-(2,1,3-benzothiadiazol-4-yloxy)-5-(methylsulfonyl)phenyl]-6-methyl-1,6-dihydro-7H-pyrrolo[2,3-c]pyridin-7-one], the half-life at 0.5 μM in series [1] is 13 min; in series [2], 15 min; in series [4], 9 min. Moreover, the results for the Ki in series [5] and in series [6] were 13.8 nM and 10.3 nM, respectively.

Turning to `CCS(=O)(=O)Nc1cc(-c2cn(C)c(=O)c3[nH]ccc23)c(Oc2ccc(F)cc2F)cc1C#N` [Example 324, N-[2-cyano-4-(2,4-difluorophenoxy)-5-(6-methyl-7-oxo-6,7-dihydro-1H-pyrrolo[2,3-c]pyridin-4-yl)phenyl]ethanesulfonamide], the half-life at 0.5 μM in series [1], in series [2] and in series [4] was more than 120 min in each case. In addition, the Ki in series [5] was found to be 3.2 nM; in series [6], 1.2 nM.

Take `Cn1cc(-c2cc(S(C)(=O)=O)ccc2Oc2ccc(F)c(F)c2)c2cc[nH]c2c1=O` [Example 174, 4-[2-(3,4-difluorophenoxy)-5-(methylsulfonyl)phenyl]-6-methyl-1,6-dihydro-7H-pyrrolo[2,3-c]pyridin-7-one]: the half-life at 0.5 μM stood at 46 min in series [1], 40 min in series [2] and 14 min in series [4]. In addition, the Ki in series [5] was 19.2 nM; in series [6], 14.3 nM.

On to `Cn1cc(-c2cc(S(C)(=O)=O)ccc2OCCN2CCCC2=O)c2cc[nH]c2c1=O` [Example 232, 6-methyl-4-{5-(methylsulfonyl)-2-[2-(2-oxopyrrolidin-1-yl)ethoxy]phenyl}-1,6-dihydro-7H-pyrrolo[2,3-c]pyridin-7-one], for which the values for the half-life at 0.5 μM in series [1], in series [2] and in series [4] were more than 120 min, 57 min and more than 120 min, respectively. The Ki in series [5] worked out at 213 nM; in series [6], 443 nM.

For `Cn1cc(-c2cc(CC(=O)O)ccc2OCc2ccccc2)c2cc[nH]c2c1=O` [Example 35, [4-(benzyloxy)-3-(6-methyl-7-oxo-6,7-dihydro-1H-pyrrolo[2,3-c]pyridin-4-yl)phenyl]acetic acid], the half-life at 0.5 μM in series [1] was more than 120 min; in series [2], 37 min; in series [4] it was 42 min. For the same molecule, the inhibition constant (Ki) in series [5] amounted to 661 nM; in series [6], 1140 nM.

On to `Cn1cc(-c2ccccc2-c2ccccc2)c2cc[nH]c2c1=O` [Example 196, 4-(biphenyl-2-yl)-6-methyl-1,6-dihydro-7H-pyrrolo[2,3-c]pyridin-7-one], for which the half-life at 0.5 μM in series [1] is 5 min; in series [2], 59 min; in series [4], 3 min. For the same molecule, the inhibition constant (Ki) in series [5] worked out at 9500 nM; in series [6], 479 nM.

Take `Cn1cc(-c2cc(C(=O)N3CCC(NC(=O)OC(C)(C)C)CC3)ccc2Oc2ccc(F)cc2F)c2cc[nH]c2c1=O` [Example 135, tert-butyl {1-[4-(2,4-difluorophenoxy)-3-(6-methyl-7-oxo-6,7-dihydro-1H-pyrrolo[2,3-c]pyridin-4-yl)benzoyl]piperidin-4-yl}carbamate]: the half-life at 0.5 μM in series [1] was 24 min; in series [2] it was 8 min; in series [4], 5 min. In addition, the Ki turned out to be 274 nM in series [5] and 77.4 nM in series [6].

`Cc1ncccc1Oc1ccc(S(C)(=O)=O)cc1-c1cn(C)c(=O)c2[nH]ccc12` [Example 179, 6-methyl-4-{2-[(2-methylpyridin-3-yl)oxy]-5-(methylsulfonyl)phenyl}-1,6-dihydro-7H-pyrrolo[2,3-c]pyridin-7-one]: the half-life at 0.5 μM in series [1] came out at 55 min; in series [2], 80 min; in series [4], 34 min. In addition, the results for the Ki in series [5] and in series [6] were 22.5 nM and 16.5 nM, respectively.

On to `Cn1cc(-c2cc(S(C)(=O)=O)ccc2OCCN2CCNC2=O)c2cc[nH]c2c1=O` [Example 218, 6-methyl-4-{5-(methylsulfonyl)-2-[2-(2-oxoimidazolidin-1-yl)ethoxy]phenyl}-1,6-dihydro-7H-pyrrolo[2,3-c]pyridin-7-one], for which the half-life at 0.5 μM in series [1], in series [2] and in series [4] was more than 120 min throughout. For the same molecule, the Ki turned out to be 69.3 nM in series [5] and 68.9 nM in series [6].
